Laboratory results: PubChem BioAssay (NCI)
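Interpolation was linear, between the two tested concentrations surrounding the appropriate level; five concentrations were tested over 48 hours in 96-well plates. TGI marks complete inhibition of growth.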

Experiments:
Assay in all cases: inhibition of tumour cell growth, NCI panel, 48 h
[1] = tested on: DLD-1 colon
[2] = tested on: DMS 273 small cell lung
[3] = tested on: HCT-15 colon
[4] = tested on: HOP-92 NSCLC
[5] = tested on: IGROV1 ovarian
[6] = tested on: K-562 leukemia
[7] = tested on: KM20L2 colon
[8] = tested on: LXFL 529 NSCLC
[9] = tested on: M19-MEL melanoma
[10] = tested on: SF-268 CNS
[11] = tested on: SNB-78 CNS
[12] = tested on: U251 CNS
[13] = tested on: UACC-62 melanoma
[14] = tested on: XF 498 CNS
[15] = tested on: DMS 114 small cell lung
[16] = tested on: SK-MEL-2 melanoma
[17] = tested on: HOP-18 NSCLC

Row | Compound | TGI [1] [µM] | TGI [2] [µM] | TGI [3] [µM] | TGI [4] [µM] | TGI [5] [µM] | TGI [6] [µM] | TGI [7] [µM] | TGI [8] [µM] | TGI [9] [µM] | TGI [10] [µM] | TGI [11] [µM] | TGI [12] [µM] | TGI [13] [µM] | TGI [14] [µM] | TGI [15] [µM] | TGI [16] [µM] | TGI [17] [µM]
1 | CC(=O)NNc1nc(C)c(C(/C=C/c2ccc(Cl)cc2)=N\N=C(N)N)s1 | > 100 | > 100 | > 100 | > 100 | > 100 | > 100 | > 100 | > 100 | > 100 | > 100 | > 100 | > 100 | > 100 | > 100 | – | – | –
2 | C=CCOC1CC(n2cnc3c(N)ncnc32)OC1CO (configuration not stated) | > 100 | > 100 | > 100 | > 100 | > 100 | > 100 | > 100 | > 100 | > 100 | > 100 | – | > 100 | > 100 | > 100 | > 100 | > 100 | –
3 | Cc1ccc(C(=O)C(c2nc3n(c2O)C(=N)N=N3)c2nc3n(c2O)C(=N)N=N3)cc1 (configuration not stated) | > 100 | > 100 | > 100 | > 100 | > 100 | > 100 | > 100 | > 100 | > 100 | > 100 | > 100 | – | > 100 | > 100 | > 100 | > 100 | –
4 | O=C(CC(=O)N1N=C(n2ccc3ccccc32)CC1c1ccccc1)Nc1ccc(Cl)cc1 (configuration not stated) | > 100 | > 100 | > 100 | > 100 | > 100 | > 100 | > 100 | > 100 | > 100 | > 100 | > 100 | > 100 | > 100 | – | > 100 | > 100 | > 100
5 | O=C1N=CN=C2C=CC(Cl)=C(I)C12 (configuration not stated) | > 100 | > 100 | – | – | > 100 | > 100 | > 100 | > 100 | > 100 | > 100 | – | > 100 | > 100 | > 100 | > 100 | > 100 | –
6 | O=S1(=O)OCCOS(=O)(=O)C1(Cl)Cl | > 100 | > 100 | – | > 100 | > 100 | > 100 | – | > 100 | > 100 | > 100 | > 100 | – | > 100 | > 100 | > 100 | > 100 | –
7 | Cc1ccc(NC(=O)CCc2nnc3s/c(=C\c4cccc([N+](=O)[O-])c4)c(=O)n23)cc1 | > 100 | > 100 | > 100 | > 100 | > 100 | > 100 | > 100 | > 100 | > 100 | > 100 | > 100 | > 100 | > 100 | > 100 | > 100 | > 100 | > 100
8 | CN1C(=S)CSc2ccccc21 | > 100 | > 100 | > 100 | > 100 | > 100 | > 100 | > 100 | > 100 | > 100 | > 100 | > 100 | > 100 | – | > 100 | > 100 | > 100 | –
9 | O=C(CSc1nnc(Cc2ccccc2)o1)Nc1ccc(Cl)cc1[N+](=O)[O-] | – | 33.9 | 32.2 | – | – | 98.7 | 45.9 | 40.8 | 34.8 | 40.2 | 47.6 | 34.8 | 30.5 | 31.3 | – | 29.8 | 28.3
10 | COC(=O)C1CC(c2ccc(Cl)cc2)=NO1 (configuration not stated) | > 100 | > 100 | > 100 | > 100 | > 100 | > 100 | > 100 | > 100 | > 100 | > 100 | > 100 | > 100 | > 100 | – | > 100 | > 100 | > 100
